In publication PMC8666671, “Fine-tuning spermidine binding modes in the putrescine binding protein PotF” (The Journal of Biological Chemistry, 2021):
Changes are numbered by the printed parent chain. Several values for one entry are separate records, joined by “and”; a condition that tells them apart may be missing. Equal entries are not always repeated.

Columns and labels:
PotF/D–E39D–F88L = target: T1, PotF/D–E39D–F88L (Escherichia coli, UniProt P31133, A182D/D247S/F276W/F88L/L348Q/S38T/S87Y); test: ITC, PotF/D–E39D–F88L; type: binding; details: 293 K
T1 construct: without the N-terminal signal peptide; made in house; host or cells: E. coli BL21 (DE3)
T1 sequence (P31133 27-370 S38T/S87Y/F88L/A182D/D247S/F276W/L348Q): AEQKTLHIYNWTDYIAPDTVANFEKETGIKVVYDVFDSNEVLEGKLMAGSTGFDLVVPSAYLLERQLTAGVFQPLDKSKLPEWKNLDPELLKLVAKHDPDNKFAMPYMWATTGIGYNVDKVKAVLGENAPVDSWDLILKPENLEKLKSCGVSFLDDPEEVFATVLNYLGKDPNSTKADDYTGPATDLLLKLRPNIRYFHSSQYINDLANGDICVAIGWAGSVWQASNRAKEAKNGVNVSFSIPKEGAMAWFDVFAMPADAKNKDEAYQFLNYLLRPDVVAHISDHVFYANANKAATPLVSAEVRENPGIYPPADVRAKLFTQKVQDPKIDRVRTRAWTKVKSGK
Description: (§1) Ligands were always freshly prepared in the exact same buffer as was used for the size exclusion run. Samples were degassed, and temperature was equilibrated using a degassing station (TA Instruments). About 400 μl protein sample of different concentrations (Table S5) depending on affinity was transferred into the sample cell of a nanoITC (TA Instruments), and 50 μl of about tenfold concentrated ligand solution was loaded into the injection needle. Multiple injection measurements were carried out at 293 K, 300 rpm stirring rate, and 250 s spacings between each 2 μl injection. The heat quantity past injection was determined by integration of the measured peaks. Every protein–ligand combination was measured as biological triplicate. Subtraction of heat of dilution measurements, peak integration, and one site binding fits were done with NanoAnalyze (TA Instruments). Reported errors are the errors between fits of the measured triplicates.

PotF/D–S247D = target: T2, PotF/D–S247D (Escherichia coli, UniProt P31133, A182D/D39E/F276W/L348Q/S38T/S87Y); test: ITC, PotF/D–S247D; type: binding; details: 293 K
T2 construct: without the N-terminal signal peptide; made in house; host or cells: E. coli BL21 (DE3)
T2 sequence (P31133 27-370 S38T/D39E/S87Y/A182D/F276W/L348Q): T1 sequence (P31133 27-370 S38T/S87Y/F88L/A182D/D247S/F276W/L348Q) with D13E, L62F, S221D
Description: as §1

[1] = ITC, 50 mM Tris pH 8, 300 mM NaCl, biological triplicates

NCCCCNCCCN [SPD, spermidine]
n (PotF/D–E39D–F88L; ITC binding stoichiometry): 1.03 ± 0.01
ΔG (PotF/D–E39D–F88L; ITC): -6.71 ± 0.03 kcal/mol
ΔH (PotF/D–E39D–F88L; ITC): -12.31 ± 0.11 kcal/mol
−TΔS (PotF/D–E39D–F88L; ITC): 5.60 ± 0.13 kcal/mol
Kd (PotF/D–E39D–F88L; [1]): ~9.9 µM and 9.9 µM
n (PotF/D–S247D; ITC binding stoichiometry): 0.94 ± 0.01
ΔG (PotF/D–S247D; ITC): -6.77 ± 0.18 kcal/mol
ΔH (PotF/D–S247D; ITC): -6.76 ± 0.08 kcal/mol
−TΔS (PotF/D–S247D; ITC): -0.01 ± 0.25 kcal/mol
Kd (PotF/D–S247D; [1]): ~9.4 µM and 9.4 µM and 9.43 µM
